These results are taken from patent publication US20240109912A1, “TRICYCLIC PYRIMIDINES AS CYCLIN-DEPENDENT KINASE 7 (CDK7) INHIBITORS” (JANSSEN PHARMACEUTICA NV, priority 2020, published 2024).

In data set [1] the test system is RNA polymerase II Serine 5 phosphorylation in A549 cells overexpressing CDK7 mutant (C312S). Description: Imaging-based cellular RNA PolII Ser5 phosphorylation assay in A549 cells overexpressing CDK7-mutant (C312S). It is filed as cell-based, human. Conditions: for IC50: Homo sapiens, A549, A549 cells overexpressing CDK7 mutant (C312S), read-out: CDK7_ A549 mutant hCDK7(pIC50) (converted); for CDK7_ A549 mutant hCDK7(pIC50): A549 cells overexpressing CDK7 mutant (C312S). The procedure, abridged:
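A stably transduced A549 pool overexpressing CDK7 C312S, a mutant that blocks covalent binding at Cys312, while retaining endogenous wild-type CDK7 was used. Ser5 phosphorylation was measured by imaging, and IC50 values were derived.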

The subject of data set [2] is RNA polymerase II Serine 5 phosphorylation (CDK7) in A549 cells.
In data set [3] the target is CDK7/cyclinH/MAT1 trimeric complex (Homo sapiens (Human), UniProt P50613). As to the kind of experiment: In vitro CDK7 assay, potency of irreversible covalent inhibitors (kinact/KI).
[4] abbreviates: CDK7 (20 nM enz.) (KI, μM), 20 nM enz.
Setting [5] is: read-out: CDK7 (20 nM enz.) (kinact, s^−1), 20 nM enz.
[6] abbreviates: read-out: CDK7 (20 nM enz.) (kinact/ KI, M^−1*s^−1), 20 nM enz.
[7] abbreviates: read-out: CDK7 (kinact, s^−1), Table B.
Setting [8] is: read-out: CDK7 (kinact/KI, M^−1*s^−1), Table B.

Each structure is given as a SMILES string. “And” between values parts separate entries of the source, which are not always exact repeats. Identical values can stand only once. Like-named read-outs stand apart in the source and are kept apart here.

Sequence of CDK7/cyclinH/MAT1 trimeric complex (P50613 whole entry): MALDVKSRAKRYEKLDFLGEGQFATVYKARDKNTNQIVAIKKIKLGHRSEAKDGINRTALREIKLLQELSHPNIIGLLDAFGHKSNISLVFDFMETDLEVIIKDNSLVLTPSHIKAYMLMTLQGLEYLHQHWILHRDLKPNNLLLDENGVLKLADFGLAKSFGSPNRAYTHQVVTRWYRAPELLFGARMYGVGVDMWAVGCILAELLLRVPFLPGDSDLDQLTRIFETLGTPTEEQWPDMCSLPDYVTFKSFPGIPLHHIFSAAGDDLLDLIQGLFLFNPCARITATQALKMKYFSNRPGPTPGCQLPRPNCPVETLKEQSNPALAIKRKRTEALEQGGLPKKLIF
Sequence of CDK7/cyclinH/MAT1 trimeric complex (P51946 whole entry partner): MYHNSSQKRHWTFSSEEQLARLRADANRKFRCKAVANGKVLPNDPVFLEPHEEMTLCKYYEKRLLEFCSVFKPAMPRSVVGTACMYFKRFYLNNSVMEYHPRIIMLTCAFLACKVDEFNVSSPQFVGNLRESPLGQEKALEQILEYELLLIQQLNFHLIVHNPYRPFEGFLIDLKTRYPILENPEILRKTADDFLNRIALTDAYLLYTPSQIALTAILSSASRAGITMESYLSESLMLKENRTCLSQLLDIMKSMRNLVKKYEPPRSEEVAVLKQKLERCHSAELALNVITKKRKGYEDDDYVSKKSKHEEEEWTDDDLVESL
Sequence of CDK7/cyclinH/MAT1 trimeric complex (P51948 whole entry partner): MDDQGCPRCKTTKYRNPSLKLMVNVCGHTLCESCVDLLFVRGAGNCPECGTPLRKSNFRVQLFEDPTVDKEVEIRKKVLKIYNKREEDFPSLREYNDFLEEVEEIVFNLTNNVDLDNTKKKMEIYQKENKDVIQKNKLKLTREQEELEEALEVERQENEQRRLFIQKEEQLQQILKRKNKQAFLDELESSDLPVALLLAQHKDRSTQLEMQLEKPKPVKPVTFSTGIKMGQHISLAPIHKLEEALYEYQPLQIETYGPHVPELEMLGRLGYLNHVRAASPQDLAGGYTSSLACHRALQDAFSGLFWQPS

Compound `C=CC(=O)N1CCN(C2CCN(c3cc(C)c4c(c3)Nc3ncnc(N5CCS(=O)(=O)CC5)c3CO4)CC2)CC1` [compound 91] displayed a melting point of 267 °C. In addition, the IC50 in data set [1] was greater than 10000 nM. This compound also had an IC50 in data set [2] of 110 nM. Moreover, the Ki in data set [3] (setting [4]) was determined as 0.0406 µM. Also, the kinact in data set [3] (setting [5]) was 5.75e-05 s⁻¹. Moreover, the kinact/KI in data set [3] (setting [6]) amounted to 1420 M⁻¹ s⁻¹.
Regarding `C=CC(=O)N1CC(N2CCC(c3cc(C)c4c(c3)Nc3ncnc(N5CC(CO)C5)c3CO4)CC2)C1` [compound 107], the melting point stood at 180 °C. For the same compound, in data set [1], the IC50 is greater than 10000 nM. In data set [2], this compound had an IC50 of 3890 nM. The same compound gave a Ki in data set [3] (setting [4]) of 0.96 µM. Further, in data set [3] (setting [5]), the kinact amounted to 5.21e-05 s⁻¹. For the same compound, in data set [3] (setting [6]), the kinact/KI amounted to 54.3 M⁻¹ s⁻¹.
For `C=CC(=O)N1CC(N2CCC(c3cc4c(cn3)OCc3c(ncnc3N3CCOCC3)N4)CC2)C1` [compound 48], the melting point stood at 220 °C. Moreover, the IC50 in data set [1] was greater than 10000 nM. In addition, the IC50 in data set [2] was 776 nM. The same compound returned a Ki in data set [3] (setting [4]) of 0.232 µM. Besides, the kinact in data set [3] (setting [5]) is 5.9e-05 s⁻¹. Further, the kinact/KI in data set [3] (setting [6]) was 254 M⁻¹ s⁻¹.
With `C=CC(=O)N1CCC(N2CCC(c3cc4c(c(C)n3)OCc3c(ncnc3N3CCS(=O)(=O)CC3)N4)CC2)CC1` [compound 59], the melting point was 259 °C. For the same compound, in data set [1], the IC50 was greater than 10000 nM. The compound also showed an IC50 in data set [2] of 151 nM. In data set [3] (setting [4]), this compound had a Ki of 0.0715 µM. Also, in data set [3] (setting [5]), the kinact worked out at 5.06e-05 s⁻¹. In addition, the kinact/KI in data set [3] (setting [6]) stood at 708 M⁻¹ s⁻¹.
Turning to `C=CC(=O)N1CC(N2CCC(c3cc4c(cn3)O[C@H](C)c3c(ncnc3N3CCOCC3)N4)CC2)C1` (single isomer, unassigned) [compound 60], the melting point came to 250 °C. Also, the “CDK7_ A549 mutant hCDK7(pIC50)” value in data set [1] is recorded as less than 5. The same compound gave an IC50 in data set [2] of 257 nM. Also, in data set [3] (20 nM enz.), the “CDK7 (20 nM enz.) (kinact, s^−1)” value came to 5.21e-05 s⁻¹ and the “CDK7 (20 nM enz.) (kinact/ KI, M^−1*s^−1)” value worked out at 184.255 M⁻¹ s⁻¹. In data set [3] (setting [4]), the Ki came to 0.283 µM.
The compound `C=CC(=O)N1CC(N2CC(c3cc4c(c(C)n3)OCc3c(ncnc3N3CCS(=O)(=O)CC3)N4)C2)C1` [compound 64] gave a melting point greater than 300 °C. For the same compound, the IC50 in data set [1] was greater than 10000 nM. The same compound had an IC50 in data set [2] of 7240 nM. Further, the Ki in data set [3] (setting [4]) is 0.427 µM. In addition, in data set [3] (setting [5]), the kinact turned out to be 4.81e-05 s⁻¹. The kinact/KI in data set [3] (setting [6]) was 113 M⁻¹ s⁻¹.
In turn, `C=CC(=O)N1CC(N2CC[C@@H](c3ccc4c(c3)Nc3ncnc(N5CCOCC5)c3CO4)[C@@H](C)C2)C1` [compound 36] came in with a melting point of 232 °C. Moreover, the IC50 in data set [1] was greater than 10000 nM. Besides, the IC50 in data set [2] was 741 nM and 479 nM. Moreover, the Ki in data set [3] (CDK7 (KI(μM)), Table B) is 0.0803 µM and 0.233 µM. In data set [3] (Table B), the “CDK7 (kinact, s^−1)” value is 0.0001256 s⁻¹ and the “CDK7 (kinact/KI, M^−1*s^−1)” value was found to be 539.8 M⁻¹ s⁻¹. For the same compound, the kinact in data set [3] (setting [7]) is 8.19e-05 s⁻¹. Further, the kinact/KI in data set [3] (setting [8]) was determined as 1020 M⁻¹ s⁻¹.
`C=CC(=O)N1CCC(N2CC(c3cc4c(c(C(F)(F)F)c3)OCc3c(ncnc3-c3cnn(C)c3)N4)C2)CC1` [compound 44] yielded a melting point of 178 °C. For the same compound, in data set [1], the IC50 is greater than 10000 nM. For the same compound, the IC50 in data set [2] is 1170 nM. Further, the Ki in data set [3] (setting [4]) turned out to be 0.67 µM. The maximal inactivation rate constant (kinact) in data set [3] (setting [5]) was 4.31e-05 s⁻¹. Further, in data set [3] (setting [6]), the kinact/KI is 64.4 M⁻¹ s⁻¹.
Compound `C=CC(=O)N1CC[C@@H](N2CCC(c3cc(C)c4c(c3)Nc3ncnc(N5CCS(=O)(=O)CC5)c3CO4)CC2)C1` (single isomer, unassigned) [compound 114] had a melting point of 251 °C. In addition, in data set [1], the “CDK7_ A549 mutant hCDK7(pIC50)” value is less than 5 and the IC50 was roughly 10000 nM. In data set [2], the IC50 was 51.3 nM and 28.2 nM. For the same compound, in data set [3] (20 nM enz.), the “CDK7 (20 nM enz.) (kinact, s^−1)” value was found to be 8.94e-05 s⁻¹ and the “CDK7 (20 nM enz.) (kinact/ KI, M^−1*s^−1)” value was 1318 M⁻¹ s⁻¹. The Ki in data set [3] (setting [4]) was 0.0288 µM and 0.0678 µM. In addition, in data set [3] (setting [5]), the kinact came to 4.67e-05 s⁻¹. Moreover, the kinact/KI in data set [3] (setting [6]) was found to be 1620 M⁻¹ s⁻¹.
The compound `C=CC(=O)N1CC(N2C3CCC2CC(c2ccc4c(c2)Nc2ncnc(N5CCOCC5)c2CO4)C3)C1` (stereo not drawn) [compound 41] registered a melting point of 208 °C. The “CDK7_ A549 mutant hCDK7(pIC50)” value in data set [1] was less than 5. Also, the IC50 in data set [2] is 1200 nM and 1320 nM. In data set [3] (20 nM enz.), the “CDK7 (20 nM enz.) (kinact, s^−1)” value was 5.55e-05 s⁻¹ and 5.25e-05 s⁻¹; the “CDK7 (20 nM enz.) (kinact/ KI, M^−1*s^−1)” value is 56 M⁻¹ s⁻¹ and 58.5 M⁻¹ s⁻¹. Moreover, the Ki in data set [3] (setting [4]) is 0.991 µM and 0.898 µM.
In turn, `C=CC(=O)N1CC(N2CCC(c3ccc4c(c3)Nc3ncnc(N5CCOCC5)c3[C@H](CC)O4)CC2)C1` (single isomer, unassigned) [compound 75] showed a melting point of 123 °C. Moreover, the IC50 in data set [1] was greater than 10000 nM. Also, the IC50 in data set [2] is 646 nM. The compound further had a Ki in data set [3] (setting [4]) of 0.265 µM. Moreover, in data set [3] (setting [5]), the maximal inactivation rate constant (kinact) came out at 3.84e-05 s⁻¹. In addition, the kinact/KI in data set [3] (setting [6]) worked out at 145 M⁻¹ s⁻¹.
Regarding `C=CC(=O)N1CC(N2CCC(c3cc4c(c(C)n3)O[C@@H](C)c3c(ncnc3N3CCS(=O)(=O)CC3)N4)CC2)C1` (single isomer, unassigned) [compound 86], the melting point came out at 247 °C. Besides, the IC50 in data set [1] was greater than 10000 nM. In data set [2], the IC50 was 525 nM. This compound also displayed a Ki in data set [3] (setting [4]) of 0.117 µM. Besides, in data set [3] (setting [5]), the kinact turned out to be 6.46e-05 s⁻¹. Further, the kinact/KI in data set [3] (setting [6]) turned out to be 551 M⁻¹ s⁻¹.
For the compound `C=CC(=O)N1CCC(N2CCC(c3ccc4c(c3)Nc3ncnc(N5CCOCC5)c3CO4)CC2)CC1` [compound 2], the melting point was 211 °C. Further, the IC50 in data set [1] was greater than 10000 nM. Further, the IC50 in data set [2] was 331 nM and 324 nM. This compound also registered a Ki in data set [3] (setting [4]) of 0.754 µM. For the same compound, the Ki in data set [3] (CDK7 (KI(μM)), Table B) came out at 0.365 µM. Moreover, the kinact in data set [3] (setting [5]) was 6.34e-05 s⁻¹. In addition, the kinact/KI in data set [3] (setting [6]) was 98.7 M⁻¹ s⁻¹. In data set [3] (setting [7]), the kinact was 0.000198 s⁻¹. Further, the kinact/KI in data set [3] (setting [8]) is 543 M⁻¹ s⁻¹.
`C=CC(=O)N1CC(N2CCC(c3cc(F)c4c(c3)Nc3ncnc(-c5cnn(C)c5)c3[C@H](C)O4)CC2)C1` (single isomer, unassigned) [compound 53]: the melting point turned out to be 260 °C. In data set [1], the IC50 is greater than 10000 nM. Further, the IC50 in data set [2] is greater than 10000 nM. For the same compound, in data set [3] (read-out: CDK7 (20 nM enz.) (kobs/[I], M^−1*s^−1), 20 nM enz.), the kinact/KI worked out at 3.8 M⁻¹ s⁻¹.
Take `C=CC(=O)N1CC[C@@H](N2CC(c3cc(C)c4c(c3)Nc3ncnc(N5CCS(=O)(=O)CC5)c3[C@@H](C)O4)C2)C1` (single isomer, unassigned) [compound 122]: the melting point was 237 °C. Further, the “CDK7_ A549 mutant hCDK7(pIC50)” value in data set [1] is listed as less than 5. Further, in data set [2], the IC50 is 81.3 nM and 79.4 nM and 61.7 nM. Besides, in data set [3] (20 nM enz.), the “CDK7 (20 nM enz.) (kinact, s^−1)” value stood at 4.85e-05 s⁻¹; the “CDK7 (20 nM enz.) (kinact/ KI, M^−1*s^−1)” value was 1658.55 M⁻¹ s⁻¹ and 891.412 M⁻¹ s⁻¹. Also, in data set [3] (setting [4]), the Ki was 0.0292 µM.
